The record followed here is ChEMBL document CHEMBL3588784, “Design of selective PI3Kα inhibitors starting from a promiscuous pan kinase scaffold” (Bioorg Med Chem Lett, 2015).

Series [1] deals with T1, Phosphatidylinositol 4,5-bisphosphate 3-kinase catalytic subunit delta isoform (Homo sapiens, UniProt O00329).
T1 sequence (O00329 whole entry): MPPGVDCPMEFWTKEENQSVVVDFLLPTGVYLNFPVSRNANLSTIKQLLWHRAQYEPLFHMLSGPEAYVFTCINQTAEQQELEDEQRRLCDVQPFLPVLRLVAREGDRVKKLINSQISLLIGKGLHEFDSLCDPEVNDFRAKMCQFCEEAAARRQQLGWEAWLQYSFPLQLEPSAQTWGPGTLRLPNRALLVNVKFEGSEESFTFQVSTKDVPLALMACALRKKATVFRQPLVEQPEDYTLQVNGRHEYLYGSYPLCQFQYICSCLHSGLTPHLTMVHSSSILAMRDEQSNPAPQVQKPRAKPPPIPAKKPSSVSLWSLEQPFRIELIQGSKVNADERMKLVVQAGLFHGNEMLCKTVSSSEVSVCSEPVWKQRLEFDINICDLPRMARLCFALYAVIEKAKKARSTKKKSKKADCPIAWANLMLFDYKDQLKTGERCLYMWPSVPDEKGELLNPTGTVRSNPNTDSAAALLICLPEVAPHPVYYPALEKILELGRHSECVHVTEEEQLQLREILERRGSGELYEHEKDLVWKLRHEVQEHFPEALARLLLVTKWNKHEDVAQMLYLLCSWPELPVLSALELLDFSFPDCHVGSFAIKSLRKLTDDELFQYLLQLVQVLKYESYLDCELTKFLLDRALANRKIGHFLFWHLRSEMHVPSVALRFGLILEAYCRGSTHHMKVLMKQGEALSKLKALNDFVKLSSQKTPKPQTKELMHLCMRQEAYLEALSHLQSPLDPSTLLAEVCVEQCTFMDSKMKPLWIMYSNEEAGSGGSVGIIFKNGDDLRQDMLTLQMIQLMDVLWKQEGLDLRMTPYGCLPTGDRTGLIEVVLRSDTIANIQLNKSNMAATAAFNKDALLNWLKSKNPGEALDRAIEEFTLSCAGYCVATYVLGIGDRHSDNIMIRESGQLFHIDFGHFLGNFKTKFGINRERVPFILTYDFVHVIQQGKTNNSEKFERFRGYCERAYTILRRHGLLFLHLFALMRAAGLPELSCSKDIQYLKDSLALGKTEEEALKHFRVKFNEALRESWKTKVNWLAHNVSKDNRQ
Kind of series: Inhibition of recombinant human PI3Kdelta using PIP2/ATP as substrate preincubated for 20 mins followed by substrate addition measured after 80 mins by Kinase-Glo plus assay. For orientation: Kinase-Glo measures the ATP left after a reaction by luminescence.

The target of series [2] is Receptor-interacting serine/threonine-protein kinase 2 (Homo sapiens) (UniProt O43353). The series can be described thus: Inhibition of RIPK2 (unknown origin) at 1 uM preincubated for 5 mins with enzyme and substrate followed by ATP addition relative to control.
For series [3], the target named is Serine/threonine-protein kinase mTOR (Homo sapiens, UniProt P42345). The series can be described thus: Inhibition of m-TOR (unknown origin).
The target in series [4] is T2, Phosphatidylinositol 4,5-bisphosphate 3-kinase catalytic subunit alpha isoform (Homo sapiens, UniProt P42336). The series can be described thus: Inhibition of PI3Kalpha in human BT474 cells assessed as inhibition of Akt phosphorylation at […] after 2 hrs by ELISA. The format is cell-based, BT-474.
Series [5] in a line: Octanol/buffer partition co-efficient, log D of the compound at pH 7.4 after 30 mins by shake-flask method. The format is physicochemical.
The target of series [6] is Glycogen synthase kinase-3 beta (Homo sapiens) (UniProt P49841). The series can be described thus: Inhibition of GSK-3beta (unknown origin) at 1 uM preincubated for 5 mins with enzyme and substrate followed by ATP addition relative to control.
Series [7] addresses T3, Phosphatidylinositol 4,5-bisphosphate 3-kinase catalytic subunit beta isoform (Homo sapiens, UniProt P42338). The series can be described thus: Inhibition of PI3Kbeta in human MDA-MB-468 cells assessed as inhibition of Akt phosphorylation at Ser-473 after 2 hrs by ELISA. The format is cell-based. Background: In an ELISA, binding on a coated surface is turned into a signal by an enzyme label.

The target of series [8] is Phosphatidylinositol 4,5-bisphosphate 3-kinase catalytic subunit gamma isoform (Homo sapiens, UniProt P48736). Kind of series: Inhibition of recombinant human PI3Kgamma using PIP2/ATP as substrate preincubated for 20 mins followed by substrate addition measured after 80 mins by Kinase-Glo plus assay.
Series [9] deals with Dual specificity tyrosine-phosphorylation-regulated kinase 1A (Homo sapiens) (UniProt Q13627). Kind of series: Inhibition of DYRK1A (unknown origin) at 1 uM preincubated for 5 mins with enzyme and substrate followed by ATP addition relative to control.
Series [10] concerns the target T2, Phosphatidylinositol 4,5-bisphosphate 3-kinase catalytic subunit alpha isoform. Kind of series: Inhibition of recombinant human PI3Kalpha using PIP2/ATP as substrate preincubated for 20 mins followed by substrate addition measured after 80 mins by Kinase-Glo plus assay.
For series [11], the target named is Vascular endothelial growth factor receptor 2 (Homo sapiens, UniProt P35968). Kind of series: Inhibition of KDR (unknown origin).
The target in series [12] is T3, Phosphatidylinositol 4,5-bisphosphate 3-kinase catalytic subunit beta isoform. Kind of series: Inhibition of recombinant human PI3Kbeta using PIP2/ATP as substrate preincubated for 20 mins followed by substrate addition measured after 80 mins by Kinase-Glo plus assay.

T2 sequence (P42336 whole entry, canonical isoform): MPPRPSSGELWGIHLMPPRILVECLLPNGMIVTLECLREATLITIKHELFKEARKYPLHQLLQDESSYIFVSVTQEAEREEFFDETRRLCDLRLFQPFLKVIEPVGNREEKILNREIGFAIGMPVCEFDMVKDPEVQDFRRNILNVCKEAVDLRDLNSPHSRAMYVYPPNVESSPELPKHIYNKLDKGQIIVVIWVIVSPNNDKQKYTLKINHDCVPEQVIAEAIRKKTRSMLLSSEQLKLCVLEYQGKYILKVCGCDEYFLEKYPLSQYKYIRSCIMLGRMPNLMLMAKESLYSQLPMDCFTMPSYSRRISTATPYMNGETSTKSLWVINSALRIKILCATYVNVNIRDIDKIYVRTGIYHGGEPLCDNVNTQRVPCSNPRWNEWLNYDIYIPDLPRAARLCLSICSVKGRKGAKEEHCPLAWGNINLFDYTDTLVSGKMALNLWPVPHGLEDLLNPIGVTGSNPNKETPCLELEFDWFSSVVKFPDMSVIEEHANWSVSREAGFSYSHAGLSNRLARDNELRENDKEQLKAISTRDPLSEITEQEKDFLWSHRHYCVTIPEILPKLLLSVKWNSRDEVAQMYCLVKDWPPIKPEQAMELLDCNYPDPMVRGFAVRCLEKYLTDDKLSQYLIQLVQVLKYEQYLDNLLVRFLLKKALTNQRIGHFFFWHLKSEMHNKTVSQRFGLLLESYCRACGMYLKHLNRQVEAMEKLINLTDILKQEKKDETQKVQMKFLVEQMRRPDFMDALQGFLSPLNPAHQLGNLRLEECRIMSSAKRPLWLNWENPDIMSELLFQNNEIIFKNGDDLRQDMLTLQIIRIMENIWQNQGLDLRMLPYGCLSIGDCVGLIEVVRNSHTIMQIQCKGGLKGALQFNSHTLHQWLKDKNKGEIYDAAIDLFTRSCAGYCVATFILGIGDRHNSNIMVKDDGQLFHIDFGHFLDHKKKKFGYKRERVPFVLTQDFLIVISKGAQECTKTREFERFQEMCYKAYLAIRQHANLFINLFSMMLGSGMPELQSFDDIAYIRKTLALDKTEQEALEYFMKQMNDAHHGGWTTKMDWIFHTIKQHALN
T3 sequence (P42338 whole entry, canonical isoform): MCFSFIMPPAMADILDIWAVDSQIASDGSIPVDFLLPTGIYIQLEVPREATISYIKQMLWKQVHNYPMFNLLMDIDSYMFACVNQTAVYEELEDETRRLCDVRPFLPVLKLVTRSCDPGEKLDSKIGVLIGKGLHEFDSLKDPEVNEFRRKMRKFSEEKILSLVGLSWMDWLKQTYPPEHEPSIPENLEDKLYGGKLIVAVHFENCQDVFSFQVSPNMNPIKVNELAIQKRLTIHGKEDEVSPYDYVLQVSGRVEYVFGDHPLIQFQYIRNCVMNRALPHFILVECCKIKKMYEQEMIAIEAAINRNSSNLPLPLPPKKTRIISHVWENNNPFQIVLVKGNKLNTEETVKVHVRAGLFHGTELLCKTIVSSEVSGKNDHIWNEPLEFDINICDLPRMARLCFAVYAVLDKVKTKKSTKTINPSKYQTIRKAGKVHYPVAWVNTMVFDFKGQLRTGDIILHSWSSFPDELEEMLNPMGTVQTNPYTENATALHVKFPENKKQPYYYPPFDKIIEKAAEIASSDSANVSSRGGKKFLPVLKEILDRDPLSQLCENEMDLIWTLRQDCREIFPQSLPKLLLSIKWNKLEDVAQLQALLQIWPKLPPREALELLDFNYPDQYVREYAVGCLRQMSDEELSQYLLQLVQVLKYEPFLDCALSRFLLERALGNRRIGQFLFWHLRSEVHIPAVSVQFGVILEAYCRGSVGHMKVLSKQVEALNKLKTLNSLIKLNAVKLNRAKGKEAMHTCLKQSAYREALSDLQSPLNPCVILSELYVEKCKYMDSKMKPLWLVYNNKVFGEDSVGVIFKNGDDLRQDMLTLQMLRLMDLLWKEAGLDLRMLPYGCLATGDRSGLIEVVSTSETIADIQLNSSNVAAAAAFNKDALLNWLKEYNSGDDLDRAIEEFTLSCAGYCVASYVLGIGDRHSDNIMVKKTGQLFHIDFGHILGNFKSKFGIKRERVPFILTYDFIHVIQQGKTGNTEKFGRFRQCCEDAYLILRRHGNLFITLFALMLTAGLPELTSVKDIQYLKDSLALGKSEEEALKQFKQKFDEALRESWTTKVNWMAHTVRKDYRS
Vascular endothelial growth factor receptor 2, sequence (P35968 whole entry, canonical isoform): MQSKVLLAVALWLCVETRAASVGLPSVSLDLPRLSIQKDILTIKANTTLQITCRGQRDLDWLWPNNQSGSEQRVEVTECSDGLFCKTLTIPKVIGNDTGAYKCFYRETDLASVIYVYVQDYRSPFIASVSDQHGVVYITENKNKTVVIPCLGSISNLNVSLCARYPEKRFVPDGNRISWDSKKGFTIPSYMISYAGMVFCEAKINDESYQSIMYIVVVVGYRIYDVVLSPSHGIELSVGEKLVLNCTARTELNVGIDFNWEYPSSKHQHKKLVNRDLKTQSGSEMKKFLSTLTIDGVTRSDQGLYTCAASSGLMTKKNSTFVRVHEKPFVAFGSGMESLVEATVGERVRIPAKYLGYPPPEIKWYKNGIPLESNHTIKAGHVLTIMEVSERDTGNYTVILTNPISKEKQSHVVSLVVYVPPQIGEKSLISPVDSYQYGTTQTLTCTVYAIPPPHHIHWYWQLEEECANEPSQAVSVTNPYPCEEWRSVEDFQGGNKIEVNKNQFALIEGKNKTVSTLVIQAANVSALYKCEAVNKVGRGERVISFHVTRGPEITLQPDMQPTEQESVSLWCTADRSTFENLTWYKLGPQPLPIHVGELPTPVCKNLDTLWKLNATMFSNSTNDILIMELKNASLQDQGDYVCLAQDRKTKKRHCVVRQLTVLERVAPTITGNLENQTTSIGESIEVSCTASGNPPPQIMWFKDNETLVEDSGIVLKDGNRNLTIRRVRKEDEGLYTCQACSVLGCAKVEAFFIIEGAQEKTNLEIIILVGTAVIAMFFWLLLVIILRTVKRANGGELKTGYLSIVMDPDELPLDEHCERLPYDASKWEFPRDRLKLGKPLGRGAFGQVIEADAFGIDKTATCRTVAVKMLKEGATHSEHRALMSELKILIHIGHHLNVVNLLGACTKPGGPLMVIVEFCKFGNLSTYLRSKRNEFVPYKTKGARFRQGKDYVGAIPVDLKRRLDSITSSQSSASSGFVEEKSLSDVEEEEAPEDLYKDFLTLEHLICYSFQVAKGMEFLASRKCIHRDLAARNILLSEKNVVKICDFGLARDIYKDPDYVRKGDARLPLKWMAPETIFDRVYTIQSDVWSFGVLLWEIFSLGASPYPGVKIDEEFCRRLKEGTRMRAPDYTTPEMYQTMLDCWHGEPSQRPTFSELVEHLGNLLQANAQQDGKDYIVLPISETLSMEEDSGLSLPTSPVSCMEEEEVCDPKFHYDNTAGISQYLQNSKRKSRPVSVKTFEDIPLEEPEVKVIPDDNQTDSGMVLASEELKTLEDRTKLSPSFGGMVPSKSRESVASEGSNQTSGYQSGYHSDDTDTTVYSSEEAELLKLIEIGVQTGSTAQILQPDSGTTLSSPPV
Phosphatidylinositol 4,5-bisphosphate 3-kinase catalytic subunit gamma isoform, sequence (P48736 whole entry, canonical isoform): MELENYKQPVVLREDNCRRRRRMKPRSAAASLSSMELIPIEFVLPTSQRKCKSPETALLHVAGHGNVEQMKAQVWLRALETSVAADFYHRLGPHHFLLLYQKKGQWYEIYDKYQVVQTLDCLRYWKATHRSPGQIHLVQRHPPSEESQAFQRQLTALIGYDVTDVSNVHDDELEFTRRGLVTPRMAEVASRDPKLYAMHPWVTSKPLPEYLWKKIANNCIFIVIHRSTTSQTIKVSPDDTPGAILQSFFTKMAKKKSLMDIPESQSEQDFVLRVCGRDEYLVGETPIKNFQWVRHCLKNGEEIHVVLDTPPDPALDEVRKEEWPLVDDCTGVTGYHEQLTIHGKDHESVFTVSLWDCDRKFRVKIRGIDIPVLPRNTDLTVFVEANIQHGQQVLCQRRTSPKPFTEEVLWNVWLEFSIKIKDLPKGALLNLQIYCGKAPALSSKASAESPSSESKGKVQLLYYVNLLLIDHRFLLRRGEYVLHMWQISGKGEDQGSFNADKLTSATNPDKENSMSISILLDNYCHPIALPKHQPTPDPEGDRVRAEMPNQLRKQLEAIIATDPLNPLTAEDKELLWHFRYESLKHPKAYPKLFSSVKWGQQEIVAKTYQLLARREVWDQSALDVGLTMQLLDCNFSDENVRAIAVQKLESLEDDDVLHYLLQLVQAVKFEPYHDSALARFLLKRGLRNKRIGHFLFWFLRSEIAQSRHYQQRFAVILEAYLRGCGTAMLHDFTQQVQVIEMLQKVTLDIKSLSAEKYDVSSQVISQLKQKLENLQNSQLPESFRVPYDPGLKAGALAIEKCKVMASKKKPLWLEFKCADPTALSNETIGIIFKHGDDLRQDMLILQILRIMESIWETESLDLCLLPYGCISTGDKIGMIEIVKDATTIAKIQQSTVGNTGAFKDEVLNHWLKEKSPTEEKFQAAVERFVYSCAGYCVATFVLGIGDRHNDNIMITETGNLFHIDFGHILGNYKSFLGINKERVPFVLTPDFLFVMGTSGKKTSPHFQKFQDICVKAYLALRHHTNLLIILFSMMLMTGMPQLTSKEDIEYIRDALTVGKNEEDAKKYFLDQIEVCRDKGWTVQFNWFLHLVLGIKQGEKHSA
Glycogen synthase kinase-3 beta (Homo sapiens), sequence (P49841 whole entry, looked up, canonical isoform): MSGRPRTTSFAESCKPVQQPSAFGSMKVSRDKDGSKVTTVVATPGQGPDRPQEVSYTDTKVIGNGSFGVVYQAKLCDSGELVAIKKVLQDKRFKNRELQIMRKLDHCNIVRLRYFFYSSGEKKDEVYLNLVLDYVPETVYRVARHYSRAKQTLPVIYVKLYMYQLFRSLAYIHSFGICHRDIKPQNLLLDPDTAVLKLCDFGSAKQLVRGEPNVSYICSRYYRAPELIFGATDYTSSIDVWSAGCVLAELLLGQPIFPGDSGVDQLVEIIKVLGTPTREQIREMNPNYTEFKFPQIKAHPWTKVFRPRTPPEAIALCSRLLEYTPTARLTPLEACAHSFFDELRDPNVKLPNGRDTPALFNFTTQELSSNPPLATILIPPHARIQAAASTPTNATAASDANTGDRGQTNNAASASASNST

Regarding `CN(C)CC(=O)N1CCC(c2nc(-c3cnc(N)c(-n4nnc5ccccc54)n3)n(C)n2)CC1`, the IC50 in series [1] amounted to 17 nM; in [3], 21000 nM; in series [4], 270 nM; in series [7], 6900 nM; in series [8], 650 nM; in series [10], 29 nM. The half-maximal inhibitory concentration (IC50) in series [11] turned out to be 9000 nM; in [12], 1000 nM. Besides, the inhibition in series [2], in series [6] and in series [9] was 60% in each case. In series [5], this compound returned a pH-dependent lipophilicity (logD) at 0.5 h of 0.9.
Turning to `CN(C)CC(=O)N1CCC(c2cc(-c3cnc(N)c(-n4nnc5ccccc54)n3)n(C)n2)CC1`, the IC50 in series [4] was found to be 91 nM; in [7], 4300 nM; in [10], 6 nM; in series [11], 90 nM; in [12] it was 380 nM. The pH-dependent lipophilicity (logD) at 0.5 h in series [5] stood at 1.8.
Turning to `CN(C)CC(=O)N1CCC(n2cc(-c3cnc(N)c(-n4nnc5ccccc54)n3)cn2)CC1`, the IC50 in series [1] came to 20 nM; in [3], 15000 nM; in series [4], 58 nM; in series [7], 13000 nM; in series [8] it was 280 nM; in [10] it was 16 nM. Besides, the IC50 was found to be 29 nM in [11] and 900 nM in [12]. The compound also had a logD at 0.5 h in series [5] of 1.7.
`CN(C)CC(=O)N1CCC(n2ccc(-c3cnc(N)c(-n4nnc5ccccc54)n3)n2)CC1`: the IC50 was found to be 250 nM in series [4]; 10000 nM in series [7]; 27 nM in [10]; 170 nM in series [11]; 1700 nM in series [12]. The logD at 0.5 h in series [5] amounted to 1.8.
Consider `CN(C)CC(=O)N1CCC(c2cn(C)c(-c3cnc(N)c(-n4nnc5ccccc54)n3)n2)CC1`, for which the IC50 in series [4] is 690 nM; in [7], 7900 nM; in [10], 64 nM; in series [11], 6600 nM; in [12], 1300 nM. This compound also yielded a logD at 0.5 h in series [5] of 1.3.
Consider `CN(C)CC(=O)N1CCC(c2nc(-c3cnc(N)c(-n4nnc5ccccc54)n3)nn2C)CC1`, for which the half-maximal inhibitory concentration (IC50) amounted to 3900 nM in series [4]; 12000 nM in [7]; 280 nM in series [10]; 1200 nM in [11]; 2400 nM in series [12]. The compound also came in with a pH-dependent lipophilicity (logD) at 0.5 h in [5] of 1.
Consider `CN(C)CC(=O)N1CCC(n2ncc(-c3cnc(N)c(-n4nnc5ccccc54)n3)n2)CC1`, for which the half-inhibitory concentration (IC50) in [4] was found to be 140 nM; in [7], 7800 nM; in [10], 21 nM; in series [11], 210 nM; in series [12], 650 nM. This compound showed a logD at 0.5 h in series [5] of 1.9.

By IC50 is commonly meant the concentration that inhibits the measured activity by half. A word on the inhibition: it is how much of the control response was suppressed. As a reminder, the logD is lipophilicity at a set pH, counting ionised and neutral species.
